# From patent US11535597B2, “Photoreactive ligands and uses thereof” (The Scripps Research Institute, priority 2017, dated 2022)
# Tested on: proteins in HEK293T cells
# Assay: MS-based mapping of FFF probe-modified peptides (isoTOP, sites of labeling)
# Assay type: binding, human
# Conditions: for Labeled Peptide (residues) of NPM1 Nucleophosmin: P06748, PDB 2P1B
# Procedure, shortened: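 Live cells treated with fragment probes (200-250 μM) in serum-free DMEM, with or without competitor ligands. Proteomes clicked to light/heavy biotin-TEV-azide, streptavidin-enriched, trypsin- then TEV-digested; probe-modified peptides identified by LC-MS/MS with any residue allowed as modified site, isoTOP ratios quantified by CIMAGE.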
smiles,measurement,setting,value
"C#CCCC1(CCC(=O)N2CCCCC2Cc2ccccc2)N=N1 (stereo not drawn) [probe 13, 1-(2-Benzylpiperidin-1-yl)-3-(3-(but-3-yn-1-yl)-3H-diazirin-3-yl)propan-1-one]",Labeled Peptide of GRWD1 Glutamate-rich WD repeat-containing protein 1,"Accession Q9BQ67, residues of probe-labeled peptide, family Uncategorized",263-287
same,Labeled Peptide,"IMPDH2 Inosine-5-monophosphate dehydrogenase 2, residues of probe-modified peptide",110-124
same,Labeled Peptide,"MAPRE1 (Q15691), residues of the probe-labeled peptide",223-241
same,Labeled Peptide,"MCM2 (P49736), residues of the probe-labeled peptide",797-807
same,Labeled Peptide,"METTL7A (Q9H8H3), residues of the probe-labeled peptide",94-105
same,Labeled Peptide,"NTMT1 (Q9BV86), residues of the probe-labeled peptide",167-185
same,Labeled Peptide,"NUP155 (O75694), residues of the probe-labeled peptide",952-968
same,Labeled Peptide,"OPA1 (O60313), residues of the probe-labeled peptide",801-818
same,Labeled Peptide (residues) of NPM1 Nucleophosmin,peptide DELHIVEAEAMNYEGSPIK,55-73
same,Labeled Peptide (residues) of NPM1 Nucleophosmin,peptide MSVQPTVSLGGFEITPPVVLR,81-101
same,Labeled Peptide,P12268 IMPDH2 Inosine-5-monophosphate dehydrogenase 2,110-124
same,Labeled Peptide,P24666 ACP1 Low molecular weight phosphotyrosine protein phosp,42-59
same,Labeled Peptide,P31939 ATIC Bifunctional purine biosynthesis protein PURH,178-194
same,Labeled Peptide (residues) of PRDX2 Peroxiredoxin-2,"P32119, peptide TDEGIAYR, PDB 1QMV",120-127
same,Labeled Peptide,Q13867 BLMH Bleomycin hydrolase,203-218
same,Labeled Peptide,Q14240 EIF4A2 Eukaryotic initiation factor 4A-II,70-83
same,Labeled Peptide,"protein ACP1 (P24666), residues of probe-labeled peptide",42-59
same,Labeled Peptide,"protein ACP1 Low molecular weight phosphotyrosine protein phosp, residues of probe-labeled peptide",42-59
same,Labeled Peptide,"protein ANP32A (Q10567), residues of probe-labeled peptide",117-132
same,Labeled Peptide,"protein ANP32A Acidic leucine-rich nuclear phosphoprotein 32 fami, residues of probe-labeled peptide",117-132
same,Labeled Peptide,"protein ANP32B (Q92688), residues of probe-labeled peptide",117-132
same,Labeled Peptide,"protein AP1B1 (Q10567), residues of probe-labeled peptide",902-913
same,Labeled Peptide,"protein ATIC (P31939), residues of probe-labeled peptide",178-194
same,Labeled Peptide,"protein ATIC Bifunctional purine biosynthesis protein PURH, residues of probe-labeled peptide",178-194
same,Labeled Peptide,"protein ATP5F1 (P24539), residues of probe-labeled peptide",71-90
same,Labeled Peptide,"protein ATP6V1B2 (P21281), residues of probe-labeled peptide",83-93
same,Labeled Peptide,"protein ATP6V1BE1 (P36543), residues of probe-labeled peptide",200-212
same,Labeled Peptide,"protein BLMH (Q13867), residues of probe-labeled peptide",203-218
same,Labeled Peptide,"protein BLMH Bleomycin hydrolase, residues of probe-labeled peptide",203-218
same,Labeled Peptide,"protein CALM3 Calmodulin (P62158), residues of probe-labeled peptide",128-149
same,Labeled Peptide,"protein CCT7 T-complex protein 1 subunit eta (Q99832), residues of probe-labeled peptide",85-106
same,Labeled Peptide,"protein COPB1 Coatomer subunit beta (P53618), residues of probe-labeled peptide",262-279
same,Labeled Peptide,"protein CSTF3 Cleavage stimulation factor subunit 3 (Q12996), residues of probe-labeled peptide",440-464
same,Labeled Peptide,"protein DIABLO Diablo homolog, mitochondrial (Q9NR28), residues of probe-labeled peptide",124-140
same,Labeled Peptide,"protein DIABLO Diablo homolog, mitochondrial, residues of probe-labeled peptide",124-140
same,Labeled Peptide,"protein EEF1A1 Elongation factor 1-alpha 1 (P68104), residues of probe-labeled peptide",135-146
same,Labeled Peptide,"protein EEF1G Elongation factor 1-gamma (P26641), residues of probe-labeled peptide",379-400
same,Labeled Peptide,"protein EIF3L Eukaryotic translation initiation factor 3 submit (Q9Y262), residues of probe-labeled peptide",404-419
same,Labeled Peptide,"protein EIF4A2 Eukaryotic initiation factor 4A-II (Q14240), residues of probe-labeled peptide",70-83
same,Labeled Peptide,"protein EIF4A2 Eukaryotic initiation factor 4A-II, residues of probe-labeled peptide",70-83
same,Labeled Peptide,"protein ERH Enhancer of rudimentary homolog (P84090), residues of probe-labeled peptide",18-34
same,Labeled Peptide,"protein ERH Enhancer of rudimentary homolog, residues of probe-labeled peptide",18-34
same,Labeled Peptide,"protein FKBP4 Peptidyl-prolyl cis-trans isomerase (Q02790), residues of probe-labeled peptide",190-206
same,Labeled Peptide,"protein FKBP4 Peptidyl-prolyl cis-trans isomerase FKBP4, residues of probe-labeled peptide",190-206
same,Labeled Peptide,"protein FKBP10 Peptidyl-prolyl cis-trans isomerase FKBP10 (Q96AY3), residues of probe-labeled peptide",198-212
same,Labeled Peptide,"protein KPNA2 Importin subunit alpha-2, residues of the probe-labeled peptide",301-315
same,Labeled Peptide,"protein NTMT1 N-terminal Xaa-Pro-Lys N-methyltransferase 1, residues of the probe-labeled peptide",167-185
same,Labeled Peptide,protein O43615 TIMM44 Mitochondrial import inner membrane translocase su,428-439
same,Labeled Peptide,protein P62241 RPS8 40S ribosomal protein S8,158-170
same,Labeled Peptide,protein P62314 SNRNP40 U5 small nuclear ribonucleoprotein Sm D1,67-86
same,Labeled Peptide,protein P62888 RPL30 60S ribosomal protein L30,58-68
same,Labeled Peptide,protein PDCD4 Programmed cell death protein 4 (Q53EL6),246-256
same,Labeled Peptide,"protein PDCD4 Programmed cell death protein 4, residues of the probe-labeled peptide",246-256
same,Labeled Peptide,protein PDS5A Sister chromatid cohesion protein PDS5 homolog A (Q29RF7),638-657
same,Labeled Peptide,protein PFN1 Profilin-1 (P07737),39-54
same,Labeled Peptide,protein PHGDH D-3-phosphoglycerate dehydrogenase (O43175),295-308
same,Labeled Peptide,protein PMPCB Mitochondrial-processing peptidase subunit beta (O75439),406-424
same,Labeled Peptide,protein PRDX2 Peroxiredoxin-2 (P32119),120-127
same,Labeled Peptide,"protein PRDX2 Peroxiredoxin-2, residues of the probe-labeled peptide",120-127
same,Labeled Peptide,protein PRMT1 Protein argine N-methyltransferase 1 (Q99873),380-391
same,Labeled Peptide,protein PTPLAD1 3-hydroxyacyl-CoA dehydratase 3 (Q9P035),133-146
same,Labeled Peptide,protein Q8N3U4 STAG2 Cohesin subunit SA-2,273-290
same,Labeled Peptide,protein Q96DI7 SNRNP40 U5 small nuclear ribonucleoprotein 40 kDa protein,233-260
same,Labeled Peptide,"protein Q01082 SPTAN1 Spectrin beta chain, non-erythrocytic 1",1706-1717
same,Labeled Peptide,"protein Q12931 TRAP1 Heat shock protein 75 kDa, mitochondrial",603-619
same,Labeled Peptide,protein Q92922 SMARCC1 SWI/SNF complex subunit SMARCC1,894-905
same,Labeled Peptide,protein RBC2 Replication (P35250),211-230
same,Labeled Peptide,protein RCN1 Reticulocalbin-1 (Q15293),91-105
same,Labeled Peptide,"protein RPL30 60S ribosomal protein L30, residues of the probe-labeled peptide",58-68
same,Labeled Peptide,"protein STAG2 Cohesin subunit SA-2, residues of the probe-modified peptide",273-290
same,Labeled Peptide,"protein TIMM44 Mitochondrial import inner membrane translocase su, residues of the probe-modified peptide",428-439
same,Labeled Peptide,"residues of probe-labeled peptide on TUBA4A Tubulin alpha-4A chain, Accession # P68366",340-352
